Results: EP1174152B1, “Inclusion complex of an opioid peptide with cyclodextrin” (COUNCIL OF SCIENTIFIC AND INDUSTRIAL RESEARCH, priority 2000, dated 2002)

Legend:
leucine amino peptidase = conditions: enzyme hydrolysis with leucine amino peptidase; cited from earlier work
rats = assay: 30 days toxicity study by subcutaneous route in rat; assay type: in vivo; conditions: once daily for 30 consecutive days, 7.5, 15.0 and 30.0 mg/kg
Procedure: (§1) 30 days toxicity study of L-Tyrosyl-D-alanyl-glycyl-N-methylphenylanyl-glycyl-isopropylamide in rat and rhesus monkey by subcutaneous route.
(§2) Compound L-Tyrosyl-D-alanyl-glycyl-N-methylphenylalanyl-glycyl-isopropylamide dissolved in saline was given daily by subcutaneous route to groups of rats (n=10 males and 10 females in each group) and rhesus monkeys (n=2 males and 2 females in each group) once daily for 30 consecutive days. The dose levels used in rats were 0 0, 7.5, 15.0 and 30.0 mg/kg and in monkeys 0.0, 3.75, 7.5 and 15 mg/kg. Dose levels were selected on the basis of rat ED of 3.0 mg/kg and extrapolation thereof in the monkey. […]
(§3) Body weights (weekly in rats, initial and day 30 in monkeys), daily food (rat and monkeys) and water (rat only) consumption and parameters of hematology, urinalysis and blood biochemistry of the animals was recorded All the animals were sacrificed at the end of 30 days Necropsy was performed and histophathological examination of all the important organs and tissues were done. […]
(§4) During necropsy examination of the external surface of the body, all orifices, and the cranial thoracic and abdominal cavities and their contents was performed. […] Liver, kidneys, adrenals, brain heart lungs, spleen and gonads were weighed, and their rdative weights were also calculated. […]

rhesus monkeys = assay: 30 days toxicity study by subcutaneous route in rhesus monkey; assay type: in vivo; conditions: once daily for 30 consecutive days, 3.75, 7.5 and 15 mg/kg
Procedure: as §1, §2, §3, §4

| Compound | half life (leucine amino peptidase) [min] | 30-day toxicity study outcome (rats) | 30-day toxicity study outcome (rhesus monkeys) |
| --- | --- | --- | --- |
| Leu-enkephalin | 45 | – | – |
| CC(C)NC(=O)CNC(=O)[C@H](Cc1ccccc1)N(C)C(=O)CNC(=O)[C@@H](C)NC(=O)[C@@H](N)Cc1ccc(O)cc1 [L-Tyrosyl-D-alanyl-glycyl-N-methylphenylalanyl-glycyl-isopropylamide] | – | found safe | found safe |
